Experimental data reported in patent US20220380415A1, “Antibiotic Peptides, Compositions and Uses Thereof” (priority 2019, published 2022).
≈ marks a conversion by molar mass, not a printed value. Entries after “also recorded” stand apart in the source; their conditions may differ. Read-outs that look alike come from different tables or passages of the source. Positions of bridges follow the written chain, without caps; N, C: chain ends. Residues, ends and D or L forms follow the SMILES beside them.

Columns and labels:
[1] = system: Enterohemorrhagic Escherichia coli O157:H7 TUV-93-0; settings: E. coli; cited from earlier work
[2] = system: Salmonella enterica serovar newport; settings: cited from earlier work
E. coli RNA polymerase = E. coli RNA polymerase (Escherichia coli, UniProt P0A8T7+P0A8V2); test: in vitro abortive transcription initiation assay (RNAP inhibition); type: biochemical
Sequence of E. coli RNA polymerase (P0A8T7 whole entry): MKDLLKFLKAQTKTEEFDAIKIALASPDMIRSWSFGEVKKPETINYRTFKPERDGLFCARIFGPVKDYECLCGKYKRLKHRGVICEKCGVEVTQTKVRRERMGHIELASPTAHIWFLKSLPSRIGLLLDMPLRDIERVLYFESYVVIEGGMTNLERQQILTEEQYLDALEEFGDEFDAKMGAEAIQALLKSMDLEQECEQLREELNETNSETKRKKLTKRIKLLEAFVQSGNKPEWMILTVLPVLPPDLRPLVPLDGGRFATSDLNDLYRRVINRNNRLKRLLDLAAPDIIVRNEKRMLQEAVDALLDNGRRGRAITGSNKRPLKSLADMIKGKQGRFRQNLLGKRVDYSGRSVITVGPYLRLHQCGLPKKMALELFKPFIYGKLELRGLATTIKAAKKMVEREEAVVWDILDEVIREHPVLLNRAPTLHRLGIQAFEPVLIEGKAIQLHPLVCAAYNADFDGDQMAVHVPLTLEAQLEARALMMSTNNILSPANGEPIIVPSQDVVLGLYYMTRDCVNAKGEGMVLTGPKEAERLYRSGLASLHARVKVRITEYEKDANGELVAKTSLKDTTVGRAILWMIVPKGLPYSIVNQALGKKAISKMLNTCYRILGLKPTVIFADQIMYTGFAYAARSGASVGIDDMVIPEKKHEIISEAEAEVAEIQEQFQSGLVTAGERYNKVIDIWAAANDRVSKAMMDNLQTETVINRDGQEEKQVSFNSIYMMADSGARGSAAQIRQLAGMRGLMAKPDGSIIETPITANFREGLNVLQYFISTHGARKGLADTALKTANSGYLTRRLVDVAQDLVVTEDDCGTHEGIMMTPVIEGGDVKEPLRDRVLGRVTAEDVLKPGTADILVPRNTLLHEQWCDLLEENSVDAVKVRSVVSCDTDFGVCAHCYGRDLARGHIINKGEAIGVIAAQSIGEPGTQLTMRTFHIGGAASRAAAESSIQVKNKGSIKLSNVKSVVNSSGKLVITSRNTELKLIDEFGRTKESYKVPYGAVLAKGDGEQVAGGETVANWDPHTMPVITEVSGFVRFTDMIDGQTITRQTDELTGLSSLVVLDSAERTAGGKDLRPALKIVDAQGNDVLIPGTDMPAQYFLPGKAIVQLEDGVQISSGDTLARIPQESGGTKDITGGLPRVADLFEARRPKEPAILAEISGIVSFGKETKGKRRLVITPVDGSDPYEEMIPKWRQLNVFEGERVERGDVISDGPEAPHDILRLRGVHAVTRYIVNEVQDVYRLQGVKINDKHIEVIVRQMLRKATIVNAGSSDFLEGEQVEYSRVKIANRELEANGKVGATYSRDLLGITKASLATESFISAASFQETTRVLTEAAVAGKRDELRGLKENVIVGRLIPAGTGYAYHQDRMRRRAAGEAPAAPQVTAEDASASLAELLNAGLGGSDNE
Sequence of E. coli RNA polymerase (P0A8V2 whole entry): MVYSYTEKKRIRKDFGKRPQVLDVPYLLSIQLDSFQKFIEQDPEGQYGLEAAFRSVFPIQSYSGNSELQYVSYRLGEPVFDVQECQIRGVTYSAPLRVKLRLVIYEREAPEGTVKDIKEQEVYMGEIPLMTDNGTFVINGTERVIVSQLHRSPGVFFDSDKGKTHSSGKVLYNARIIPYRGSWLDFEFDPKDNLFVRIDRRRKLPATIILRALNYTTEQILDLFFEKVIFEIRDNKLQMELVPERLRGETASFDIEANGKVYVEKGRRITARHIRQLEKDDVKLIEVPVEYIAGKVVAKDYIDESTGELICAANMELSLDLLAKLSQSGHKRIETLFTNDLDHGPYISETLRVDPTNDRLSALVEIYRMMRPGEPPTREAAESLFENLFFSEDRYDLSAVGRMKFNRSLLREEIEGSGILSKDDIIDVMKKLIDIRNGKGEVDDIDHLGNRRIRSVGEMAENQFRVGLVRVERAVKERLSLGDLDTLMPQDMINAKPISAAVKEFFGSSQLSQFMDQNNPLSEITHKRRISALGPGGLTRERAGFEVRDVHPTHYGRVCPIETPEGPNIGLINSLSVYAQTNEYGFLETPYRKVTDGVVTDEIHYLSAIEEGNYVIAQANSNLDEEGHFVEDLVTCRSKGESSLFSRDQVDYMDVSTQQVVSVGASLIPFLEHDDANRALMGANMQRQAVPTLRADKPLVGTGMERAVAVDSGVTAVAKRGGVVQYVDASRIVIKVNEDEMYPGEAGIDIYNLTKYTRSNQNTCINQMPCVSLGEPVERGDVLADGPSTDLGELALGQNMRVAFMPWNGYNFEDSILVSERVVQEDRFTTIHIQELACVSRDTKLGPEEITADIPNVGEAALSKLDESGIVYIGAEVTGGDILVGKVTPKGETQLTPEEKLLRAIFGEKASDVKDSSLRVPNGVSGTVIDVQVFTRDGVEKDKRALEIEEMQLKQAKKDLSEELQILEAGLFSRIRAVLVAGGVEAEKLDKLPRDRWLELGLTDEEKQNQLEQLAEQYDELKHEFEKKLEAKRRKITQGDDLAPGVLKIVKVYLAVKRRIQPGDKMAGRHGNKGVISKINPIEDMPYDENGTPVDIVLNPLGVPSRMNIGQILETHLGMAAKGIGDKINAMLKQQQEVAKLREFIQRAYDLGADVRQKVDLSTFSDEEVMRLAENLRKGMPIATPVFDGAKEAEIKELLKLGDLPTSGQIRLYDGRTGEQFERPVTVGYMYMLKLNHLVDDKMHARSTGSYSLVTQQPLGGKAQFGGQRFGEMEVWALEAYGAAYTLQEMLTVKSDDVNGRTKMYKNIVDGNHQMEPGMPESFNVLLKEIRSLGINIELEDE
Sequence of E. coli RNA polymerase (P0A7Z4 whole entry, further chain): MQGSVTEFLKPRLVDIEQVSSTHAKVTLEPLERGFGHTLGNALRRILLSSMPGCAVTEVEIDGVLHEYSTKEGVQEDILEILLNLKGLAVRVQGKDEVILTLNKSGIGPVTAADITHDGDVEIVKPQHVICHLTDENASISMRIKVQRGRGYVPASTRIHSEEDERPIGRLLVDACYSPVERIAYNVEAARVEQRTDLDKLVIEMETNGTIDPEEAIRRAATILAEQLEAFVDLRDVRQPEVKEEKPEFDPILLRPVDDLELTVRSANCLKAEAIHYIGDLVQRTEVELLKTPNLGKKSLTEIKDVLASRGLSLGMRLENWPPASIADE
Sequence of E. coli RNA polymerase (P00579 whole entry, further chain): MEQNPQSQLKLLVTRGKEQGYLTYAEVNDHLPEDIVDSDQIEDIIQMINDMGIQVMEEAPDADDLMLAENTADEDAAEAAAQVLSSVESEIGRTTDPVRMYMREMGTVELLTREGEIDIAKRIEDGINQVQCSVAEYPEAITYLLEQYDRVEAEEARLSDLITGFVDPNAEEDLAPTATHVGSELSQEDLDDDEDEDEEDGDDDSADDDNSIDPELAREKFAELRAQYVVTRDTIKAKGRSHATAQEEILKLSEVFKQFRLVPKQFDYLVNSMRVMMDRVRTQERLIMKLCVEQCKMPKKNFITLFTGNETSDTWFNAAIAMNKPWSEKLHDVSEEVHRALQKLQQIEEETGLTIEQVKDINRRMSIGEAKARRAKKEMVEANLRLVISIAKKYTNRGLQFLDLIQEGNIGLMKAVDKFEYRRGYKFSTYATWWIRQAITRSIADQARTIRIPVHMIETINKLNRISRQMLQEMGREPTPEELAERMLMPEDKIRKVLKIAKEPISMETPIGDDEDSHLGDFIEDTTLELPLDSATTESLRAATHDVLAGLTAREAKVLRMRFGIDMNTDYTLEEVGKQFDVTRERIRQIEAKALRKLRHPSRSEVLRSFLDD
Sequence of E. coli RNA polymerase (P0A800 whole entry, further chain): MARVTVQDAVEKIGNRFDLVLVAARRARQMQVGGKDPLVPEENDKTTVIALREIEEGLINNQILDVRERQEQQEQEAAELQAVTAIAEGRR

Burkholderia multivorans = type: cell-based
B. pseudomallei = type: cell-based, Burkholderia pseudomallei
[3] = system: Burkholderia multivorans ATCC 17616
[4] = system: Burkholderia thailandensis E264
[5] = system: Burkholderia gladioli ATCC 10248
[6] = system: Burkholderia pseudomallei Bp82
[7] = system: Burkholderia pseudomallei 576mn
[8] = system: Enterohemorrhagic Escherichia coli O157:H7 TUV-93-0
[9] = system: Salmonella enterica serovar newport
[10] = system: Pseudomonas aeruginosa PAO1
B. cepacia ATCC 25416 [11] = system: B. cepacia ATCC 25416
[12] = system: B. multivorans ATCC 17616
B. mallei Old ISU [13] = system: B. mallei Old ISU
B. mallei NVSL 86-567-2 [14] = system: B. mallei NVSL 86-567-2
B. cepacia ATCC 25416 [15] = system: B. cepacia ATCC 25416; remark: listed apart in the source
[16] = system: B. multivorans ATCC 17616; remark: listed apart in the source
B. mallei Old ISU [17] = system: B. mallei Old ISU; remark: listed apart in the source
B. mallei NVSL 86-567-2 [18] = system: B. mallei NVSL 86-567-2; remark: listed apart in the source
[19] = thermostability analysis via LC-MS; settings: heated to 95° C.; 2 h for the LC-MS sample

## microcin J25 (GGAGHVPEYFVGIGTPISFYG) [MccJ25]
[1]
  susceptibility of strain to peptide: susceptible
[2]
  susceptibility of strain to peptide: susceptible

## citrocin
[1]
  susceptibility of strain to peptide: susceptible
[2]
  susceptibility of strain to peptide: susceptible

## CC[C@H](C)[C@@H]1NC(=O)[C@H](CO)NC(=O)CNC(=O)[C@H](CC(=O)O)NC(=O)CNC(=O)CNC(=O)CC[C@@H](C(=O)N[C@@H](Cc2ccc(O)cc2)C(=O)N[C@@H](Cc2ccccc2)C(=O)N[C@@H](CC(N)=O)C(=O)N[C@@H](CCCNC(=N)N)C(=O)N2CCC[C@H]2C(=O)N[C@@H](CCSC)C(=O)N[C@@H](Cc2c[nH]cn2)C(=O)N[C@H](C(=O)N[C@@H](Cc2c[nH]cn2)C(=O)N[C@@H](CC(=O)O)C(=O)N[C@@H](Cc2c[nH]c3ccccc23)C(=O)N[C@@H](CCC(N)=O)C(=O)N[C@H](C(=O)N[C@@H](CCSC)C(=O)N[C@@H](CC(=O)O)C(=O)N[C@@H](CO)C(=O)NCC(=O)N[C@@H](Cc2ccc(O)cc2)C(=O)N[C@@H](Cc2ccc(O)cc2)C(=O)NCC(=O)O)[C@@H](C)CC)[C@@H](C)CC)NC(=O)[C@H](C)NC1=O [ubonodin] (GGDGSIAEYFNRPMHIHDWQIMDSGYYG-OH; lactam N-8; C-terminus assumed)
E. coli RNA polymerase
  potency in abortive transcription assays relative to MccJ25: somewhat lower than that of MccJ25
E. coli RNA polymerase; 0, 1, 10 or 100 μM peptide
  inhibition of E. coli RNA polymerase (abortive transcription initiation): inhibits transcription initiation; also recorded: able to inhibit E. coli RNAP; also recorded: inhibits E. coli RNA polymerase
Burkholderia multivorans
  activity against B. multivorans after heating: maintains its activity; also recorded: loses activity
B. pseudomallei
  antimicrobial activity (in words): no activity
[3]
  MIC in M63 agar: 8 µM (≈ 25.6 µg/mL)
[3]; ATCC 17616
  MIC in M63 agar: 7.8 µM (≈ 25 µg/mL)
[4]
  MIC in M63 agar: 500 µM (≈ 1600 µg/mL)
[5]
  antimicrobial activity (in words): no activity
[5]; ATCC 10248
  MIC in M63 agar: >500 µM
[6]
  MIC in M63 agar: >500 µM
[7]
  MIC in M63 agar: >500 µM
[8]
  antimicrobial activity (in words): unable to kill
[8]; O157:H7
  MIC in M63 agar: >500 µM
[9]
  antimicrobial activity (in words): unable to kill
[9]; serovar newport
  MIC in M63 agar: >500 µM
[10]
  MIC in M63 agar: >500 µM
B. cepacia ATCC 25416 [11]
  MIC via spot-on-lawn assay: 40 µM (≈ 128 µg/mL)
[12]
  MIC via spot-on-lawn assay: 20 µM (≈ 64 µg/mL)
B. mallei Old ISU [13]
  MIC via spot-on-lawn assay: 40 µM (≈ 128 µg/mL)
B. mallei NVSL 86-567-2 [14]
  MIC via spot-on-lawn assay: 40 µM (≈ 128 µg/mL)
B. cepacia ATCC 25416 [15]
  MIC via liquid growth assay: 4 µM (≈ 12.8 µg/mL)
[16]
  MIC via liquid growth assay: 31 µM (≈ 99.2 µg/mL)
B. mallei Old ISU [17]
  MIC via liquid growth assay: >31 µM
B. mallei NVSL 86-567-2 [18]
  MIC via liquid growth assay: >31 µM
[19]
  thermal degradation by LC-MS: fragments into a variety of different structures; also recorded: major species in this sample is still intact ubonodin

## H17A (GGDGSIAEYFNRPMHIADWQIMDSGYYG; listed as Burkholderia ubonensis)
[3]
  antimicrobial activity of purified ubonodin variants relative to wild-type: near wild-type activity
